{"source": "patent US9051351B2", "about": "“Hepatocyte growth factor mimics as therapeutic agents” (Washington State University, priority 2011, dated 2015)", "key": {"hippocampal neurons [1]": {"test_system": "hippocampal neurons", "assay": "Immunocytochemistry: percent correlation of spines to synaptic markers", "assay_type": "cell-based, rat", "conditions": "10^−12 M, 5 days", "procedure": "(§1) Transfected neurons were treated, fixed and stained. Briefly, cells were permeablized with 0.1% Triton X-100 detergent (Bio-Rad; Hercules, Calif.) for 10 minutes. An 8% bovine serum albumin (Intergen Company; Burlington, Mass.) in PBS was used to prevent non-specific binding for one hour at R.T.; Primary antibody incubations were at a 1:2500 dilution (see below) in 1% BSA in PBS at 4° C. overnight. Secondary antibody, 1:3000 Alexafluor 488 goat-anti-mouse (Invitrogen: Carlsbad, Calif.) was applied for two hours at room temperature. Coverslips were mounted with ProLong Gold anti-fade reagent (Invitrogen; Carlsbad, Calif.) and all washes were done with PBS. Imaging and analysis were performed as described above. For presynaptic excitatory transmission the VGLUT1 (Synaptic Systems, Goettingen, Germany) marker (Balschun, Moechars et al.) was employed and for general presynaptic transmission synapsin1 (Synaptic Systems, Goettingen, Germany) (Ferreira and Rapoport 2002) was applied. A postsynaptic function was established by PSD-95 (Milipore, Billerica, Mass.) (El-Husseini, Schnell et al. 2000). In each instance the total number of spines was counted for the treatment groups, control, Nle1-AngIV and Dihexa, to ensure an active phenotype. The total number of actin enriched spines adjacent to VGLUT1 or Synapsin were counted and converted to a percentage as the percent correlation of treatment-induced spines to presynaptic markers is a strong indicator of ability to transmit excitatory signals.\nas §1, with “fixed and stained as previously described in Chapter two. Briefly, cells” for “fixed and stained. Briefly, cells”, “enriched spines (red) adjacent to” for “enriched spines adjacent to”\nTransfected neurons were treated and fixed as described above. Following fixation, cells were rinsed in PBS and permeabilized with 0.1% Triton® X-100 detergent (Bin-Rad; Hercules, Calif.), followed by two rinses in PBS and blocked with 8% bovine serum albumin (Intergen Company; Burlington, Mass.) in PBS for 1 h. […]"}, "hippocampal neurons [2]": {"test_system": "hippocampal neurons", "assay": "Whole-cell recordings of mEPSCs in dissociated hippocampal neurons", "assay_type": "cell-based, rat", "conditions": "10^−12 M, 5 days"}, "human HGF": {"molecular_target": "T1, human HGF (Homo sapiens, UniProt P14210)", "T1 construct": "purchased R&D Systems (Minneapolis, Minn.)", "T1 sequence (P14210 32-728)": "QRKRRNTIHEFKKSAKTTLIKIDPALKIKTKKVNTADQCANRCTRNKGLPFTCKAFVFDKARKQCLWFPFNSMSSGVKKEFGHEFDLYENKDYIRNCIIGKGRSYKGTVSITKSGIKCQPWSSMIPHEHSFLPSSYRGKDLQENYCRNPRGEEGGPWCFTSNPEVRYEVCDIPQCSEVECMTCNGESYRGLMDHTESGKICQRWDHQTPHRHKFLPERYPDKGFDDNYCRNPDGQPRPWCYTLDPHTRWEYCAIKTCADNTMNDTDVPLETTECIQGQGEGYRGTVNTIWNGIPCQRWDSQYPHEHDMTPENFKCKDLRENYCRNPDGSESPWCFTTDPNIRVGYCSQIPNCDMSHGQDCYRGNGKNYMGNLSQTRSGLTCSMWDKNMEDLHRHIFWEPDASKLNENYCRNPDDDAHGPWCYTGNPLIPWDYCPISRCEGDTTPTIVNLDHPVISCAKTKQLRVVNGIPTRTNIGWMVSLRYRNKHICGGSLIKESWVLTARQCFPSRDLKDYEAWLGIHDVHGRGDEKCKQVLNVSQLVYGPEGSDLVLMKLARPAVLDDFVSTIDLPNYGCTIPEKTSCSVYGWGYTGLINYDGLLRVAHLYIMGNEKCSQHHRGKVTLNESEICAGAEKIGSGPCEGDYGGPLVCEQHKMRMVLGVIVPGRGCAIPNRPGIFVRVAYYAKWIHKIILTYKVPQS", "assay": "HGF dimerization (PAGE, silver staining)", "assay_type": "biochemical", "conditions": "30 minutes, heparin", "procedure": "HGF dimerization was assessed using PAGE followed by silver staining (Kawas et al., 2011). Human HGF at a concentration of 0.08 ng/μl with or without 6-AH analogs was incubated with heparin at a final concentration of 5 μg/ml. Loading buffer was then added to each sample and the mixture separated by native PAGE using gradient Criterion XT precast gels (4-12% Bis-Tris; Biorad Laboratories, Hercules, Calif.). Next the gel was silver stained for the detection of the HGF monomers and dimers. Bands were quantitated from digital images using a UVP phosphoimager (Upland, Calif.)."}, "hippocampal neurons [3]": {"test_system": "hippocampal neurons", "assay": "H2O2 oxidative stress in dissociated hippocampal neurons", "assay_type": "cell-based", "conditions": "100 μM H2O2 24 hrs +/− HGF 5 ng/ml and/or Dihexa", "procedure": "FIG. 47. […] Dissociated hippocampal neurons were treated with 100 μM H2O2 for 24 hrs+/−HGF at sub-threshold concentrations 5 ng/ml and or Dihexa at 2 different concentrations 10^−8M and […]. (*p<0.05,** p<0.01; Mean+/−SEM)."}, "6-OHDA lesioned rats": {"test_system": "6-OHDA lesioned rats", "assay": "6-OHDA lesioned rat: rope hang, gait analysis, histology", "assay_type": "in vivo", "procedure": "Three groups of rats (8 animals per group) were utilized. The first two groups were prepared with unilateral 6-OHDA lesions and members of the first group was treated with MM-201 in DMSO 100 μl:PBS 8 ml ([…]) Members of Group 2 were treated with sterile DMSO 100 μl:PBS 8 ml equivalent volumes to the weights. Members of Group 3 had only a sham surgery and served as the non-treated controls. These three groups of animals were tested on behavioral tasks the day prior to surgery and on 13 days following surgery. The tasks included rope hang, and gait analysis.\nThe rope hang test involved the placement of the forepaws on a hemp rope (1.0 cm in dia.) located 1 m above a basket of towels. Hang time was recorded beginning when the experimenter let go of the animal. This test was repeated 3 times/animal/test (5 minutes rest between each test) every other day.\nStep gait analyses were conducted in a dark room painted black under red light. The bottoms of each rat's feet were painted with black ink (Parker Quink) and the rat was placed in a Plexiglas straight maze (length×width×height: 116×7.6×10 cm). The maze was slightly elevated at one end such that the animal's tendency was to walk up hill. White paper strips placed on the floor of the maze were used to collect the gait patterns. These ink tracks were analyzed for stride length (distance between the mid point of the fore paw and hind paw comparing left and right strides)."}}, "note": "“Also recorded” adds a separate entry of the source. Where a SMILES comes first, the peptide text is derived from it. [ ]: non-standard residue; d: D form. The star is where a group is joined. Hexanoyl = CCCCCC(=O)*; Ahx = NCCCCCC(=O)O", "data": [{"smiles": "CCCCCC(=O)N[C@@H](Cc1ccc(O)cc1)C(=O)N[C@H](C(=O)NCCCCCC(N)=O)[C@@H](C)CC", "note": "[Dihexa, N-hexanoic-Tyr-Ile-(6)-aminohexanoic amide] (Hexanoyl-Tyr-Ile-[Ahx]-NH2)", "values": [{"measurement": "percent correlation of treatment-induced spines to VGLUT1, Synapsin or PSD-95 vs control", "setting": "hippocampal neurons [1]", "result": "did not differ from control treated neurons in the percent correlation"}, {"measurement": "Number of spines/50 μm", "setting": "hippocampal neurons [1]; PSD-95 study", "result": 43, "unit": "spines/50 μm"}, {"measurement": "Number of spines/50 μm", "setting": "hippocampal neurons [1]; Synapsin study", "result": 37, "unit": "spines/50 μm"}, {"measurement": "Number of spines/50 μm", "setting": "hippocampal neurons [1]; VGLUT1 study", "result": 44, "unit": "spines/50 μm"}, {"measurement": "frequency of AMPA-mediated mEPSCs", "setting": "hippocampal neurons [2]", "result": "4.82±0.34", "unit": "Hz"}, {"measurement": "increase in mEPSC frequency over control", "setting": "hippocampal neurons [2]", "result": 1.6, "unit": "fold"}, {"measurement": "HGF dimerization in the presence of Dihexa", "setting": "human HGF", "result": "blocking HGF dimerization; also recorded: blocks HGF dimerization"}, {"measurement": "protection of neurons from oxidative stress", "setting": "hippocampal neurons [3]", "result": "act synergistically to protect neurons; also recorded: protects neurons from oxidative stress"}, {"measurement": "performance in the rope hang test", "setting": "6-OHDA lesioned rats; 0.5 mg/kg ip, started 2 weeks after 6-OHDA lesion", "result": "completely restores performance in the rope hang test; also recorded: completely restored the performance"}, {"measurement": "motor deficits in the 6-OHDA rat", "setting": "6-OHDA lesioned rats; 2 mg/kg by oral gavage/48 hrs", "result": "reverses motor deficits"}, {"measurement": "gait analysis", "setting": "6-OHDA lesioned rats; 6-OHDA lesioned rats", "result": "confirmed the recovery of normal motor function"}, {"measurement": "overt toxicity", "setting": "6-OHDA lesioned rats; 96 day studies", "result": "no overt toxicity was noted"}, {"measurement": "tyrosine hydroxylase (TH) staining in the substantia nigra", "setting": "6-OHDA lesioned rats; six weeks of ip Dihexa treatment", "result": "dramatic restoration of tyrosine hydroxylase (TH) staining"}, {"measurement": "recovery of SN TH staining", "setting": "6-OHDA lesioned rats; three months of Dihexa treatment", "result": "~100", "unit": "%"}]}]}
